# Article PMC8155022 (Scientific Reports, 2021)
# Tests used:
# [1] = biological target: T1, PPARβ (Homo sapiens, UniProt Q03181); assay: nuclear receptor cellular GAL4 reporter assay; format: cell-based; details: agonist and antagonist mode; read-out: potency in agonist and antagonist mode
# T1 construct: expressed in transfected cells
# [2] = biological target: ADRA1A (Homo sapiens, UniProt P35348); assay: GPCR panel, cAMP or calcium FLIPR assays; format: cell-based
# Experimental: (§1) 28 GPCRs were evaluated through cAMP or calcium FLIPR assays[67].
# [3] = biological target: T2, CAR (Homo sapiens, UniProt Q14994); assay: nuclear receptor cellular GAL4 reporter assay; format: cell-based; details: agonist and antagonist mode; read-out: potency in agonist and antagonist mode
# T2 construct: expressed in transfected cells
# [4] = biological target: T3, CHK1(h) (Homo sapiens, UniProt O14757); assay: Kinase panel; format: biochemical
# T3 construct: purchased Cerep (receptors, ion channels, transporters); Eurofins Panlabs (kinases)
# T3 sequence (O14757 whole entry): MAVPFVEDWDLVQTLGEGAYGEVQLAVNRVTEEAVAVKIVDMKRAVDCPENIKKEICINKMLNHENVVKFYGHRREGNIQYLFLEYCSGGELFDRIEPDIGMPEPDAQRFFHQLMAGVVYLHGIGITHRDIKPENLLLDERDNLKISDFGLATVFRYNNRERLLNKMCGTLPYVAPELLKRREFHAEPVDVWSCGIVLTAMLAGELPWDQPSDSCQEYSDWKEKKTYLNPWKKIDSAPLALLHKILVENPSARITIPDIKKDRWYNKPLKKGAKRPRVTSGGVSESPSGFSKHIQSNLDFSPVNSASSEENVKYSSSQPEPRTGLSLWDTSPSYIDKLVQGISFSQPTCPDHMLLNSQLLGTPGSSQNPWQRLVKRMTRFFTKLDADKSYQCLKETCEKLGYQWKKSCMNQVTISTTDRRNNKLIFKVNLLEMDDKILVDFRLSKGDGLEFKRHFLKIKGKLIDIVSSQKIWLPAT
# Experimental: (§2) Kinase selectivity was conducted by Eurofins Panlabs Inc (St Charles, MO).
# [5] = biological target: T4, CK2α2(h) (Homo sapiens, UniProt P19784); assay: Kinase panel; format: biochemical
# T4 construct: purchased Cerep (receptors, ion channels, transporters); Eurofins Panlabs (kinases)
# T4 sequence (P19784 whole entry): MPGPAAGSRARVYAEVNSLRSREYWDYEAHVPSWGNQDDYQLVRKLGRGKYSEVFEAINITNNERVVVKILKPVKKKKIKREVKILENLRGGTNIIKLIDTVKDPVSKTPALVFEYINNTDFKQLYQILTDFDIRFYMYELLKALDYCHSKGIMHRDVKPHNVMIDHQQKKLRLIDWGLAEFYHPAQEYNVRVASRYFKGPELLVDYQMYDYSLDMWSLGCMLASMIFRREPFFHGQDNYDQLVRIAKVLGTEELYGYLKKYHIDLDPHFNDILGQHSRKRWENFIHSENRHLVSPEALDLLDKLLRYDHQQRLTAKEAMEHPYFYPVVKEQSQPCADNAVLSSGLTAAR
# Experimental: as §2
# [6] = biological target: T5, PPARα (Homo sapiens, UniProt Q07869); assay: nuclear receptor cellular GAL4 reporter assay; format: cell-based; details: agonist and antagonist mode; read-out: potency in agonist and antagonist mode
# T5 construct: expressed in transfected cells
# [7] = biological target: ADRA2A (Homo sapiens, UniProt P08913); assay: GPCR panel, cAMP or calcium FLIPR assays; format: cell-based
# Experimental: as §1
# [8] = biological target: T6, MC4 (h) (Homo sapiens, UniProt P32245); assay: Cerep panel; format: binding
# T6 construct: purchased Cerep (receptors, ion channels, transporters); Eurofins Panlabs (kinases)
# Experimental: (§3) A panel of 52 different receptors, ion channels and transporters was tested by Cerep, Inc. (Redmond, WA).
# [9] = biological target: T7, MAPK2(h) (Homo sapiens, UniProt P28482); assay: Kinase panel; format: biochemical
# T7 construct: purchased Cerep (receptors, ion channels, transporters); Eurofins Panlabs (kinases)
# T7 sequence (P28482 whole entry): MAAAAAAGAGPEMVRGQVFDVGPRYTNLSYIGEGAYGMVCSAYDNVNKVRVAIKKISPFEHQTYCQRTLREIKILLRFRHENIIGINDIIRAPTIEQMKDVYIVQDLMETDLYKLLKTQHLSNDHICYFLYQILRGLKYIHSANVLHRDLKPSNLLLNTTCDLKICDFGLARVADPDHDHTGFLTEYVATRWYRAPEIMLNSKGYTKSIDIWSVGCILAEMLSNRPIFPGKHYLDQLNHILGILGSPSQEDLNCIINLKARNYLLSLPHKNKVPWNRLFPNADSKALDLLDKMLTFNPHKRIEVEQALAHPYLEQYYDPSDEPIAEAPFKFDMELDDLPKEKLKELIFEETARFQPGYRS
# Experimental: as §2
# [10] = biological target: T8, 5-HT-T (Homo sapiens, UniProt P31645); assay: Cerep panel; format: binding
# T8 construct: purchased Cerep (receptors, ion channels, transporters); Eurofins Panlabs (kinases)
# T8 sequence (P31645 whole entry): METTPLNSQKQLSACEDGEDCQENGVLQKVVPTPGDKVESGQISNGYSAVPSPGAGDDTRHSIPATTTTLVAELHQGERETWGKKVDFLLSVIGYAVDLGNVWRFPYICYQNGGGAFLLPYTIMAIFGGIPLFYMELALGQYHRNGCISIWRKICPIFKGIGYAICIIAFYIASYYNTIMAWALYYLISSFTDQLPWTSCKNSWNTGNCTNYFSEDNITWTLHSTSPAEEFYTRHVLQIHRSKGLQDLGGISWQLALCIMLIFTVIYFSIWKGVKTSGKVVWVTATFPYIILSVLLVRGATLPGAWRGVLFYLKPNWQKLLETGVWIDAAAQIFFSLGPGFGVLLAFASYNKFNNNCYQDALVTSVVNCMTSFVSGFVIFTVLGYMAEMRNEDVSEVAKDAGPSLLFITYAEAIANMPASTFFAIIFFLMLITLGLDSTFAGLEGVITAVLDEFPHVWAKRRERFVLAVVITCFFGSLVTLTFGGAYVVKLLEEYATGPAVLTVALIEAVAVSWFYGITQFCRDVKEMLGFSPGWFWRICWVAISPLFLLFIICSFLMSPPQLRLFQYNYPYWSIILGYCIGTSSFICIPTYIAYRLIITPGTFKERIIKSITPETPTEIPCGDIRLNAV
# Experimental: 28 GPCRs were evaluated through cAMP or calcium FLIPR assays[67]. A panel of 52 different receptors, ion channels and transporters was tested by Cerep, Inc. (Redmond, WA).
# [11] = biological target: T9, SAPK4(h) (Homo sapiens, UniProt O15264); assay: Kinase panel; format: biochemical
# T9 construct: purchased Cerep (receptors, ion channels, transporters); Eurofins Panlabs (kinases)
# T9 sequence (O15264 whole entry): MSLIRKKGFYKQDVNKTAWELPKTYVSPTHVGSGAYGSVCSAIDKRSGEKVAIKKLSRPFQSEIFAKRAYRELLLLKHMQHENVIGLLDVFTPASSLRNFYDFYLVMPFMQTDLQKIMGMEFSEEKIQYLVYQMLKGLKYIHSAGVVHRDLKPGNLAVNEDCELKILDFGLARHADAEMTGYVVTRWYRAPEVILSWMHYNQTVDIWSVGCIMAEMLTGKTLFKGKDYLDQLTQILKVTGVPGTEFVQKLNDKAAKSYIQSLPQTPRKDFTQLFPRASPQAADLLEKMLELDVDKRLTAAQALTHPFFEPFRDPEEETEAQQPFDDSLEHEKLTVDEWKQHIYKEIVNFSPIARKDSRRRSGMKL
# Experimental: as §2
# [12] = biological target: T10, V1a (h) (Homo sapiens, UniProt P37288); assay: Cerep panel; format: binding
# T10 construct: purchased Cerep (receptors, ion channels, transporters); Eurofins Panlabs (kinases)
# Experimental: as §3
# [13] = biological target: ERRγ (Homo sapiens, UniProt P62508); assay: biochemical TR-FRET assay; details: agonist and antagonist mode; read-out: potency in agonist and antagonist mode
# [14] = biological target: T11, PKA(h) (Homo sapiens, UniProt P17612); assay: Kinase panel; format: biochemical
# T11 construct: purchased Cerep (receptors, ion channels, transporters); Eurofins Panlabs (kinases)
# Experimental: as §2
# [15] = biological target: T12, Blk(h) (Homo sapiens, UniProt P51451); assay: Kinase panel; format: biochemical
# T12 construct: purchased Cerep (receptors, ion channels, transporters); Eurofins Panlabs (kinases)
# T12 sequence (P51451 whole entry): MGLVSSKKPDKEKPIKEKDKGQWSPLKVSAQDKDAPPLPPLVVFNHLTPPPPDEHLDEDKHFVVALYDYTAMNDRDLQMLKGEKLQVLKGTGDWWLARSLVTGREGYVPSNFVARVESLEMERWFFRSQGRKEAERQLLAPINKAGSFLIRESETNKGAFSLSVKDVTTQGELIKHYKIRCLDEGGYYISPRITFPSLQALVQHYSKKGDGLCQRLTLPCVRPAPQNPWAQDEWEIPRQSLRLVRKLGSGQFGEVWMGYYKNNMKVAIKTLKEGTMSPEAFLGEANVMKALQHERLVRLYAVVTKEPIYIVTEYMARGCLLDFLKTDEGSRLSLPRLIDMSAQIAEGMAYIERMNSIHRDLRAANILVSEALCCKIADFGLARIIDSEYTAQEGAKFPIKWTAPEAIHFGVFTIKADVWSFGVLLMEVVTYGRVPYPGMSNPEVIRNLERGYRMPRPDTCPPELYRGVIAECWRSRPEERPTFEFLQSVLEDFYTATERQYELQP
# Experimental: as §2
# [16] = biological target: T13, ALK4(h) (Homo sapiens, UniProt P36896); assay: Kinase panel; format: biochemical
# T13 construct: purchased Cerep (receptors, ion channels, transporters); Eurofins Panlabs (kinases)
# Experimental: 28 GPCRs were evaluated through cAMP or calcium FLIPR assays[67]. A panel of 52 different receptors, ion channels and transporters was tested by Cerep, Inc. (Redmond, WA). Kinase selectivity was conducted by Eurofins Panlabs Inc (St Charles, MO).
# [17] = biological target: T14, JAK3(h) (Homo sapiens, UniProt P52333); assay: Kinase panel; format: biochemical
# T14 construct: purchased Cerep (receptors, ion channels, transporters); Eurofins Panlabs (kinases)
# Experimental: as §2
# [18] = biological target: CCKA (Homo sapiens, UniProt P32238); assay: GPCR panel, cAMP or calcium FLIPR assays; format: cell-based
# Experimental: as §1
# [19] = tested on: CD4+ T cells under Treg polarizing conditions; assay: in vitro human Treg differentiation, FOXP3 gene expression; format: cell-based; details: 6 days
# Description: Supplement Materials and Methods
# In vitro human Treg differentiation
# Human nTreg Suppressive Assay
# [20] = biological target: T15, GAL2 (h) (Homo sapiens, UniProt O43603); assay: Cerep panel; format: binding
# T15 construct: purchased Cerep (receptors, ion channels, transporters); Eurofins Panlabs (kinases)
# T15 sequence (O43603 whole entry): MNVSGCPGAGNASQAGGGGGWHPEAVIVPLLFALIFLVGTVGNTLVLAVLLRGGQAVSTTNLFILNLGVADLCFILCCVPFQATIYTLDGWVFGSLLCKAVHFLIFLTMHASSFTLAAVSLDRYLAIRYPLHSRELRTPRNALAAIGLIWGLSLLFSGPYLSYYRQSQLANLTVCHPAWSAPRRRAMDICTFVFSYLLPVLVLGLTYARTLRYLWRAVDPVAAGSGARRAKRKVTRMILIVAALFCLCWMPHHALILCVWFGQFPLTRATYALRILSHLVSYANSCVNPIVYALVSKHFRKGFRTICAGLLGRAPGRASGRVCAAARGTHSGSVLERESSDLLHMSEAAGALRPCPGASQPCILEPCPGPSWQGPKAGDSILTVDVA
# Experimental: as §3
# [21] = biological target: NK2 (Homo sapiens, UniProt P21452); assay: follow-up functional study; format: cell-based
# [22] = tested on: ex vivo stimulated IL-17A production; assay: phase 1 single ascending dose study, ex vivo stimulated IL-17A production in whole blood; parameters: species or system human
# Experimental: The sampling was performed up to 120 h post-dose for cohort 1 (10 mg) and cohort 2 (30 mg), and extended to 504 h for cohort 3, 4 and 5.
# Whole blood samples were collected on the morning of day 1 at pre-dose and at 1, 2, 6, 12, 24, 48, 96, and 120 h post-dose in Cohorts 1 and 2. For Cohort 3,4, and 5, samples were collected the morning of day 1 at pre-dose and at 2, 6, 12, 24, 48, 120, 312 and 504 h post-dose. Blood samples (1 ml) were drawn into TruCulture tubes (Myriad RBM, Austin, TX) which contained 2 ml of cocktail containing cell culture media and stimulants, then mixed and incubated at 37 °C in a block thermostat for 48 h. The final concentrations of the stimulants in the TruCulture tube incubations were: IL-23 (50 ng/ml), and IL-1β (10 ng/ml), with anti-CD3 and anti-CD28 antibodies at standard concentration as per standard CD3/CD28 TruCulture tubes. Negative control tubes (no stimulants) were also collected at each timepoint. Supernatants were collected after the end of the incubation period and analyzed to determine concentrations of induced IL-17A using a validated immunoassay method (human IL-17A V-plex kit from Meso Scale Discovery).
# [23] = biological target: T16, CK2(h) (Homo sapiens, UniProt P68400); assay: Kinase panel; format: biochemical
# T16 construct: purchased Cerep (receptors, ion channels, transporters); Eurofins Panlabs (kinases)
# T16 sequence (P68400 whole entry): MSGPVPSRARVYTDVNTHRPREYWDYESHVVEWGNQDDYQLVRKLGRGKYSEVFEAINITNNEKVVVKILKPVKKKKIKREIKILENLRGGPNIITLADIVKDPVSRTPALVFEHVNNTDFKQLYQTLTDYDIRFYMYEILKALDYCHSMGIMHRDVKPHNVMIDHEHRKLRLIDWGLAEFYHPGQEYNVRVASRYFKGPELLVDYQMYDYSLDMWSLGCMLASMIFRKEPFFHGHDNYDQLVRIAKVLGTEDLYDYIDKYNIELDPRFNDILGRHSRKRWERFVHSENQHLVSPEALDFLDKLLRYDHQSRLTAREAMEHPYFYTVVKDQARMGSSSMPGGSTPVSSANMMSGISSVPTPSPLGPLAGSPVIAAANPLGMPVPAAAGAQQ
# T16 sequence (P67870 whole entry partner): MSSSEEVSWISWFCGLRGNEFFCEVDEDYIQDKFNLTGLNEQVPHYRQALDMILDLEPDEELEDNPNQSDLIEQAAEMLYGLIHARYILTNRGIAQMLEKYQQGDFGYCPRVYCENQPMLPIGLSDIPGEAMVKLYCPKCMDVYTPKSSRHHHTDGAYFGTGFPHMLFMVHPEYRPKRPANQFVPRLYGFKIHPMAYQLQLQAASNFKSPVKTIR
# Experimental: as §2
# [24] = biological target: T17, M1 (h) (Homo sapiens, UniProt P11229); assay: Cerep panel; format: binding
# T17 construct: purchased Cerep (receptors, ion channels, transporters); Eurofins Panlabs (kinases)
# Experimental: as §3
# [25] = biological target: T18, 5-HT6 (h) (Homo sapiens, UniProt P50406); assay: Cerep panel; format: binding
# T18 construct: purchased Cerep (receptors, ion channels, transporters); Eurofins Panlabs (kinases)
# Experimental: as §3
# [26] = biological target: T19, PR (Homo sapiens, UniProt P06401); assay: nuclear receptor cellular GAL4 reporter assay; format: cell-based; details: agonist and antagonist mode; read-out: potency in agonist and antagonist mode
# T19 construct: expressed in transfected cells
# [27] = biological target: T20, PAK4(h) (Homo sapiens, UniProt O96013); assay: Kinase panel; format: biochemical
# T20 construct: purchased Cerep (receptors, ion channels, transporters); Eurofins Panlabs (kinases)
# T20 sequence (O96013 whole entry): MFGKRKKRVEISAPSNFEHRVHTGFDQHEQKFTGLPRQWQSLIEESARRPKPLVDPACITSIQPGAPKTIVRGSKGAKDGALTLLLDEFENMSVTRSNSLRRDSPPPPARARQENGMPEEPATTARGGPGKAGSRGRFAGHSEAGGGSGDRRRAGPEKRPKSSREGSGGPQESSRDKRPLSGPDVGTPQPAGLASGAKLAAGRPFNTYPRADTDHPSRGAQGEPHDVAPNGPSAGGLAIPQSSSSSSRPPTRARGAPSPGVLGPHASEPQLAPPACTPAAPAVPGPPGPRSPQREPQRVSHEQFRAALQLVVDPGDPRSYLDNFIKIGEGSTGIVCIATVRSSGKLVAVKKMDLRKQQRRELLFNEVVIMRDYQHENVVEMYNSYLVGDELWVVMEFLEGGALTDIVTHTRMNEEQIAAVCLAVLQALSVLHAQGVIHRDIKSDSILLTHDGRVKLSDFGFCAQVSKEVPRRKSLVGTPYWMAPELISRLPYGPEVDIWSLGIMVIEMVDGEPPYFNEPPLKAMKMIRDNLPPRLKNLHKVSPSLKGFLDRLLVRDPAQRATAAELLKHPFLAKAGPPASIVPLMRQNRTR
# Experimental: as §2
# [28] = biological target: T21, beta 1 (h) (Homo sapiens, UniProt P08588); assay: Cerep panel; format: binding
# T21 construct: purchased Cerep (receptors, ion channels, transporters); Eurofins Panlabs (kinases)
# Experimental: as §3
# ADRA1A, sequence (P35348 whole entry, the tested form may be a part): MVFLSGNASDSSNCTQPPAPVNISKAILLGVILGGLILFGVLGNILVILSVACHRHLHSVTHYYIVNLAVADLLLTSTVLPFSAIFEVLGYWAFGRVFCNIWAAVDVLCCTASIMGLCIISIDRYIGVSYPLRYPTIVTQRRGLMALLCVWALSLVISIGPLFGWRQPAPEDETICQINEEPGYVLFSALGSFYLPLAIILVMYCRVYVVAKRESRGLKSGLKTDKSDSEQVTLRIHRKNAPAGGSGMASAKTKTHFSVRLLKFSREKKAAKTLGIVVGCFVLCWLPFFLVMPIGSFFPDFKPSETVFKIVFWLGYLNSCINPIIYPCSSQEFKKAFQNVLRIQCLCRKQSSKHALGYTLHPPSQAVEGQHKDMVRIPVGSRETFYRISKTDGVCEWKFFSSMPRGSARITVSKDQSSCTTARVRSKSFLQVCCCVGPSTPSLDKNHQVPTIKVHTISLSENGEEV
smiles,measurement,setting,value
CC1CCCN1C(=O)c1nc(C(=O)NCC(C)(C)O)sc1-c1ccc(C(O)(C(F)(F)F)C(F)(F)F)c(Cl)c1Cl (stereo not drawn) [JNJ-61803534],IC50,[1],> 1.5 µM
same,EC50,[2]; agonist,> 10 µM
same,IC50,[2]; antagonist,> 10 µM
same,IC50,[3],> 1.5 µM
same,activity at 1 µM,[4],97%
same,activity at 10 µM,[4],132%
same,activity at 1 µM,[5],92%
same,activity at 10 µM,[5],100%
same,IC50,[6],> 1.5 µM
same,EC50,[7]; agonist,> 12.5 µM
same,IC50,[7]; antagonist,> 12.5 µM
same,inhibition at 1 µM,[8],< 10%
same,inhibition at 10 µM,[8],< 10%
same,activity at 1 µM,[9],124%
same,activity at 10 µM,[9],127%
same,inhibition at 1 µM,[10],< 10%
same,inhibition at 10 µM,[10],< 10%
same,activity at 1 µM,[11],100%
same,activity at 10 µM,[11],112%
same,inhibition at 1 µM,[12],< 10%
same,inhibition at 10 µM,[12],20.3%
same,IC50,[13],> 10 µM
same,activity at 1 µM,[14],85%
same,activity at 10 µM,[14],88%
same,activity at 1 µM,[15],95%
same,activity at 10 µM,[15],102%
same,activity at 1 µM,[16],104%
same,activity at 10 µM,[16],108%
same,activity at 1 µM,[17],109%
same,activity at 10 µM,[17],114%
same,EC50,[18]; agonist,> 10 µM
same,IC50,[18]; antagonist,> 10 µM
same,FOXP3 expression levels versus DMSO-treated cells,[19],similar
same,inhibition at 1 µM,[20],< 10%
same,inhibition at 10 µM,[20],< 10%
same,IC50,[21]; read-out: IC50 in follow up functional assays,> 30 µM
same,effect on NK2 in follow-up functional studies,[21]; up to 30 µM,no effect
same,maximum inhibition of ex vivo stimulated IL-17A production as compared to placebo,"[22]; 100 mg single dose, fasted (cohort 3)",45%
same,maximum inhibition of ex vivo stimulated IL-17A production as compared to placebo,[22]; 200 mg single dose (cohort 4),54%
same,IL-17A inhibition,[22]; 10 and 30 mg doses,did not appear to show a separation from placebo
same,activity at 1 µM,[23],109%
same,activity at 10 µM,[23],102%
same,inhibition at 1 µM,[24],< 10%
same,inhibition at 10 µM,[24],< 10%
same,inhibition at 1 µM,[25],< 10%
same,inhibition at 10 µM,[25],< 10%
same,IC50,[26],> 1.5 µM
same,activity at 1 µM,[27],104%
same,activity at 10 µM,[27],103%
same,inhibition at 1 µM,[28],< 10%
same,inhibition at 10 µM,[28],< 10%
